Results: US9168259B2 (GRÜNENTHAL GMBH, priority 2010, dated 2015)
pEC50: −log10 of the molar value.

Target: T1, KCNQ2/3 channels (Homo sapiens, UniProt O43525+O43526)
T1 construct: expressed in transfected cells
Test: Fluorescence assay using a voltage sensitive dye (fluorimetry)
Format: cell-based
Conditions: CHO-K1 cells expressing KCNQ2/3; for Emax: CHO-K1, plateau effect relative to saturated retigabine (50 μM) = 100%, negative values = antagonistic, read-out: Fluorimetry % efficacy (retigabine = 100%); for pEC50: IC50 where % efficacy is negative, read-out: Fluorimetry EC50/IC50

T1 sequence (O43526 whole entry): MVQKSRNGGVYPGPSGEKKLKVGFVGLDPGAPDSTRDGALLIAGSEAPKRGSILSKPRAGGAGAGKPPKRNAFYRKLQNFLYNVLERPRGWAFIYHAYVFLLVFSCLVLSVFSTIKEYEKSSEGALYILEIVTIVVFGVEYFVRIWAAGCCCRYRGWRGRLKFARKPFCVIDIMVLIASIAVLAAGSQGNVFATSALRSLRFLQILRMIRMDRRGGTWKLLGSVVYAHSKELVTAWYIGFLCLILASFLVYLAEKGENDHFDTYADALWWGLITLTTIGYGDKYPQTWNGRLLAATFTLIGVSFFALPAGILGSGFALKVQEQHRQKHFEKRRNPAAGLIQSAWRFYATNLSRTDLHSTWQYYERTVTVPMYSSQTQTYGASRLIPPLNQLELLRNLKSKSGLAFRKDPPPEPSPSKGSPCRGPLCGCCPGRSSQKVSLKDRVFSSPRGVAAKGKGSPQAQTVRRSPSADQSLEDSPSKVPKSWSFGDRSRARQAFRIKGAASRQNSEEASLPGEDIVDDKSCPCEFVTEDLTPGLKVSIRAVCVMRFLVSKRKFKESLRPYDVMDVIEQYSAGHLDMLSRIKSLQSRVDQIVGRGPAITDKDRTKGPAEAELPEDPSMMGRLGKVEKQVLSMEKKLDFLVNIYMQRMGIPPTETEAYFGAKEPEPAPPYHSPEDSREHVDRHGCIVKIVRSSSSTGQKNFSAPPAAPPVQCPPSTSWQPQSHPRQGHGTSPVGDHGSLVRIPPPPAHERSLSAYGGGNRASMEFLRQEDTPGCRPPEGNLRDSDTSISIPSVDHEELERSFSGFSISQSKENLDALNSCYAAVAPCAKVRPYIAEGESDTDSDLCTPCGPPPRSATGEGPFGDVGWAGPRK
T1 sequence (O43525 whole entry): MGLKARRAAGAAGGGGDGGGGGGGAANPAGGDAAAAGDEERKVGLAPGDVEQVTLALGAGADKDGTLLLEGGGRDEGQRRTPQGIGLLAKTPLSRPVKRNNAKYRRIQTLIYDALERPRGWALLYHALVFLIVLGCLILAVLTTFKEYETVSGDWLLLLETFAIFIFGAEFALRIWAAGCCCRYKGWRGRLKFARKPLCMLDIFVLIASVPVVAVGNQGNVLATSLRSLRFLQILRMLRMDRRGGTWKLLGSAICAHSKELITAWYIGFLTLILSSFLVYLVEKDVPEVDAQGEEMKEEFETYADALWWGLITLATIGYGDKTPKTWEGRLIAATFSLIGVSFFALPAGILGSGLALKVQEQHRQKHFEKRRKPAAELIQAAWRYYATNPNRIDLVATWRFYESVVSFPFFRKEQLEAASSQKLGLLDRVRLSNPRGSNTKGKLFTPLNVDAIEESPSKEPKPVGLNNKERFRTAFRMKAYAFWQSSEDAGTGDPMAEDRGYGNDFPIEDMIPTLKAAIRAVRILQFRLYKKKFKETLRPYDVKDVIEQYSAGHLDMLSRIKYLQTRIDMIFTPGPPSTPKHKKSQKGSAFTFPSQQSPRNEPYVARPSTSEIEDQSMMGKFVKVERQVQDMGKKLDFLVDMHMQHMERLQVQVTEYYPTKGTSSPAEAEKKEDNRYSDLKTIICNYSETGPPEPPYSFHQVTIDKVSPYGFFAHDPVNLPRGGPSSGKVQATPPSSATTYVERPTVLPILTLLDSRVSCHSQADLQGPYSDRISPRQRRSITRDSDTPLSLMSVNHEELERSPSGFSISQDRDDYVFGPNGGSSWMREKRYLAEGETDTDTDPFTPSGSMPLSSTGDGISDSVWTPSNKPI

COCc1nc(N2CCOCC2)cc(C)c1C(=O)NCc1cccc(F)c1 [Example 356, N-[(3-Fluorophenyl)-methyl]-2-(methoxymethyl)-4-methyl-6-morpholin-4-yl-pyridine-3-carboxylic acid amide]
Emax: 140% | pEC50: 5.20

CCOc1nc(N2CCOCC2)cc(C)c1C(=O)NCc1ccc(F)cc1 [Example 64, 2-Ethoxy-N-[(4-fluorophenyl)-methyl]-4-methyl-6-morpholin-4-yl-pyridine-3-carboxylic acid amide]
Emax: 137% | pEC50: 6.67

CCCSc1nc(N2CCOCC2)cc(C)c1C(=O)NCc1cccc(F)c1 [Example 56, N-[(3-Fluorophenyl)-methyl]-4-methyl-6-morpholin-4-yl-2-(propylsulfanyl)-pyridine-3-carboxylic acid amide]
Emax: 167% | pEC50: 7.11

CCSc1nc(N2CCOCC2)cc(C)c1C(=O)NCCC(O)c1ccccc1 (stereo not drawn) [Example 227, 2-Ethylsulfanyl-N-(3-hydroxy-3-phenyl-propyl)-4-methyl-6-morpholin-4-yl-pyridine-3-carboxylic acid amide]
Emax: 165% | pEC50: 5.38

CCC(C)(C)c1nc(N2CCOCC2)cc(C)c1C(=O)NCCCC(C)(C)C [Example 279, N-(4,4-Dimethyl-pentyl)-2-(1,1-dimethyl-propyl)-4-methyl-6-morpholin-4-yl-pyridine-3-carboxylic acid amide]
Emax: 172% | pEC50: 6.37

CCSc1nc(N2CCO[C@@H](CO)C2)cc(C)c1C(=O)NCc1cccc(F)c1 [Example 292, 2-Ethylsulfanyl-N-[(3-fluorophenyl)-methyl]-6-[(2R)-2-(hydroxymethyl)-morpholin-4-yl]-4-methyl-pyridine-3-carboxylic acid amide]
Emax: 32%

CCSc1nc(N2CCOCC2)cc(C)c1C(=O)NCC(=O)CC(C)(C)C [Example 324, N-(4,4-Dimethyl-2-oxo-pentyl)-2-ethylsulfanyl-4-methyl-6-morpholin-4-yl-pyridine-3-carboxylic acid amide]
Emax: 166% | pEC50: 6.08

CCSc1nc(N2CCOCC2)cc(C)c1C(=O)NCc1ccc([N+](=O)[O-])cc1 [Example 281, 2-Ethylsulfanyl-4-methyl-6-morpholin-4-yl-N-[(4-nitrophenyl)-methyl]-pyridine-3-carboxylic acid amide]
Emax: 109% | pEC50: 6.51

Cc1cc(N2CCOCC2)nc(C(C)C)c1C(=O)NCc1ccc(C(F)(F)F)cc1 [Example 311, 2-Isopropyl-4-methyl-6-morpholin-4-yl-N-[[4-(trifluoromethyl)-phenyl]-methyl]pyridine-3-carboxylic acid amide]
Emax: 146% | pEC50: 7.35

Cc1cc(N2CCOCC2)nc(SC(C)C)c1C(=O)NCc1cccc(F)c1 [Example 37, N-[(3-Fluorophenyl)-methyl]-2-(isopropylsulfanyl)-4-methyl-6-morpholin-4-yl-pyridine-3-carboxylic acid amide]
Emax: 148% | pEC50: 7.00

CCSc1nc(N2CCOC(CC)C2)cc(C)c1C(=O)NCc1cccc(F)c1 (stereo not drawn) [Example 167, 6-(2-Ethyl-morpholin-4-yl)-2-ethylsulfanyl-N-[(3-fluorophenyl)-methyl]-4-methyl-pyridine-3-carboxylic acid amide]
Emax: 137% | pEC50: 6.95

COC[C@@H]1CN(c2cc(C)c(C(=O)NCc3ccc(Cl)cc3)c(C3CC3)n2)CCO1 [Example 290, N-[(4-Chlorophenyl)-methyl]-2-cyclopropyl-6-[(2S)-2-(methoxymethyl)-morpholin-4-yl]-4-methyl-pyridine-3-carboxylic acid amide]
Emax: 136% | pEC50: 6.50

CCSc1nc(N2CCOCC2)cc(C)c1C(=O)NCc1cccc(C)c1 [Example 164, 2-Ethylsulfanyl-4-methyl-6-morpholin-4-yl-N-(m-tolyl-methyl)-pyridine-3-carboxylic acid amide]
Emax: 122% | pEC50: 6.63

CCSc1nc(N(C)Cc2cccnc2)cc(C)c1C(=O)NCc1cccc(F)c1 [Example 119, 2-Ethylsulfanyl-N-[(3-fluorophenyl)-methyl]-4-methyl-6-[methyl-(pyridin-3-yl-methyl)-amino]-pyridine-3-carboxylic acid amide]
Emax: 91% | pEC50: 5.62

CCCCOc1nc(N2CCOCC2)cc(C)c1C(=O)NCc1cccc(F)c1 [Example 110, 2-Butoxy-N-[(3-fluorophenyl)-methyl]-4-methyl-6-morpholin-4-yl-pyridine-3-carboxylic acid amide]
Emax: 163% | pEC50: 7.15

CCCc1nc(N2CCOC[C@H]2C)cc(C)c1C(=O)NCCCC(C)(C)C [Example 199, N-(4,4-Dimethyl-pentyl)-4-methyl-6-[(3R)-3-methyl-morpholin-4-yl]-2-propyl-pyridine-3-carboxylic acid amide]
Emax: 232% | pEC50: 7.30

CCSc1nc(N2CCOC[C@H]2C)cc(C)c1C(=O)NCc1ccc(C(F)(F)F)cc1 [Example 237, 2-Ethylsulfanyl-4-methyl-6-[(3R)-3-methyl-morpholin-4-yl]-N-[[4-(trifluoromethyl)-phenyl]-methyl]-pyridine-3-carboxylic acid amide]
Emax: 148% | pEC50: 7.25

CCSc1nc(N(C)C(C)=O)cc(C)c1C(=O)NCc1cccc(F)c1 [Example 123, 6-(Acetyl-methyl-amino)-2-ethylsulfanyl-N-[(3-fluorophenyl)-methyl]-4-methyl-pyridine-3-carboxylic acid amide]
Emax: 67%

CCSc1nc(N(C)CC2CCCO2)cc(C)c1C(=O)NCc1cccc(F)c1 (stereo not drawn) [Example 294, 2-Ethylsulfanyl-N-[(3-fluorophenyl)-methyl]-4-methyl-6-[methyl-(tetrahydro-furan-2-yl-methyl)-amino]-pyridine-3-carboxylic acid amide]
Emax: 129% | pEC50: 5.99

CCSc1nc(N(CCCOC)Cc2ccc(F)cc2)cc(C)c1C(=O)NCc1cccc(F)c1 [Example 338, 2-Ethylsulfanyl-N-[(3-fluorophenyl)-methyl]-6-[(4-fluorophenyl)-methyl-(3-methoxy-propyl)-amino]-4-methyl-pyridine-3-carboxylic acid amide]
Emax: 73% | pEC50: 6.49

CCSc1nc(N2CCOCC2)cc(C)c1C(=O)NCCC1CCCC1 [Example 44, N-(2-Cyclopentyl-ethyl)-2-ethylsulfanyl-4-methyl-6-morpholin-4-yl-pyridine-3-carboxylic acid amide]
Emax: 116% | pEC50: 7.06

COc1nc(N2CCOC[C@H]2C)cc(C)c1C(=O)NCc1ccc(C(F)(F)F)cc1 [Example 238, 2-Methoxy-4-methyl-6-[(3R)-3-methyl-morpholin-4-yl]-N-[[4-(trifluoromethyl)-phenyl]-methyl]pyridine-3-carboxylic acid amide]
Emax: 164% | pEC50: 6.99

Cc1cc(N2CCOC[C@H]2C)nc(N(C)C)c1C(=O)NCc1ccc(F)cc1 [Example 172, 2-Dimethylamino-N-[(4-fluorophenyl)-methyl]-4-methyl-6-[(3R)-3-methyl-morpholin-4-yl]-pyridine-3-carboxylic acid amide]
Emax: 246% | pEC50: 6.42

CCSc1nc(N(C)c2ccncc2)cc(C)c1C(=O)NCc1cccc(F)c1 [Example 200, 2-Ethylsulfanyl-N-[(3-fluorophenyl)-methyl]-4-methyl-6-(methyl-pyridin-4-yl-amino)-pyridine-3-carboxylic acid amide]
Emax: 22%

CCSc1nc(N2CCc3ccccc32)cc(C)c1C(=O)NCc1cccc(F)c1 [Example 305, 6-(2,3-Dihydro-1H-indol-1-yl)-2-ethylsulfanyl-N-[(3-fluorophenyl)-methyl]-4-methyl-pyridine-3-carboxylic acid amide]
Emax: 57%

Cc1cc(N2CCOCC2)nc(C2CC2)c1C(=O)NCc1ccc(F)cc1 [Example 331, 2-Cyclopropyl-N-[(4-fluorophenyl)-methyl]-4-methyl-6-morpholin-4-yl-pyridine-3-carboxylic acid amide]
Emax: 144% | pEC50: 6.83

CCSc1nc(N2CCO[C@@H](C)C2)cc(C)c1C(=O)NCCCC(C)(C)C [Example 274, N-(4,4-Dimethyl-pentyl)-2-ethylsulfanyl-4-methyl-6-[(2S)-2-methyl-morpholin-4-yl]-pyridine-3-carboxylic acid amide]
Emax: 217% | pEC50: 6.63

CSc1nc(N2CCOCC2)cc(C)c1C(=O)NCc1cc(F)cc(F)c1 [Example 156, N-[(3,5-Difluoro-phenyl)-methyl]-4-methyl-2-methylsulfanyl-6-morpholin-4-yl-pyridine-3-carboxylic acid amide]
Emax: 167% | pEC50: 6.80

CCSc1nc(N2CCO[C@@H](C)C2)cc(C)c1C(=O)NCc1cccc(F)c1 [Example 138, 2-Ethylsulfanyl-N-[(3-fluorophenyl)-methyl]-4-methyl-6-[(2S)-2-methyl-morpholin-4-yl]-pyridine-3-carboxylic acid amide]
Emax: 125% | pEC50: 6.77

CCSc1nc(N2CCOCC2)cc(C)c1C(=O)NCc1ccc(C(F)(F)F)c(F)c1 [Example 142, 2-Ethylsulfanyl-N-[[3-fluoro-4-(trifluoromethyl)-phenyl]-methyl]-4-methyl-6-morpholin-4-yl-pyridine-3-carboxylic acid amide]
Emax: 125% | pEC50: 7.42

CCSc1nc(N2CCOCC2)cc(C)c1C(=O)NCc1ccc(N(C)C)cc1 [Example 148, N-[(4-Dimethylaminophenyl)-methyl]-2-ethylsulfanyl-4-methyl-6-morpholin-4-yl-pyridine-3-carboxylic acid amide]
Emax: 105% | pEC50: 5.44

CCOc1nc(N2CCOCC2)cc(C)c1C(=O)NCc1ccc(C(F)(F)F)cc1 [Example 132, 2-Ethoxy-4-methyl-6-morpholin-4-yl-N-[[4-(trifluoromethyl)-phenyl]-methyl]pyridine-3-carboxylic acid amide]
Emax: 122% | pEC50: 6.96
